In publication PMC12678798, “Discovery of an allosteric binding site for anthraquinones at the human P2X4 receptor” (Nature Communications, 2025):

Assays:
[1] = target: T1, human P2X4-E307T receptor mutant (Homo sapiens, UniProt Q99571, E307T); assay: ATP-induced calcium influx assay, P2X4-E307T mutant in 1321N1 astrocytoma cells; type: cell-based; conditions: P2X4-E307T
T1 construct: expressed in transfected cells
T1 sequence (Q99571 1-388 E307T): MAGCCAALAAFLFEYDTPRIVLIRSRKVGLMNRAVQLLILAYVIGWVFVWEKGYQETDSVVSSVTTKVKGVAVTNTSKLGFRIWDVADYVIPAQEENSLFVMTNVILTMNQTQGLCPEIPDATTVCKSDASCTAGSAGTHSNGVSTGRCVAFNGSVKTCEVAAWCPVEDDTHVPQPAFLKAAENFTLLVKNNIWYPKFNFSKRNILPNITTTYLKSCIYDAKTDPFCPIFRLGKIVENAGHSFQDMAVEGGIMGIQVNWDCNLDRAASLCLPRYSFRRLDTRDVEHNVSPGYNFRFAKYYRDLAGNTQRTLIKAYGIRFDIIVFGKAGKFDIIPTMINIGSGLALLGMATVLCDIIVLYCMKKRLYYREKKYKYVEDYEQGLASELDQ

human wt P2X2 receptor = target: T2, human wt P2X2 receptor (Homo sapiens, UniProt Q9UBL9); assay: ATP-induced calcium influx assay, human wt P2X2 receptor in 1321N1 astrocytoma cells; type: cell-based
T2 construct: expressed in transfected cells
T2 sequence (Q9UBL9 1-471): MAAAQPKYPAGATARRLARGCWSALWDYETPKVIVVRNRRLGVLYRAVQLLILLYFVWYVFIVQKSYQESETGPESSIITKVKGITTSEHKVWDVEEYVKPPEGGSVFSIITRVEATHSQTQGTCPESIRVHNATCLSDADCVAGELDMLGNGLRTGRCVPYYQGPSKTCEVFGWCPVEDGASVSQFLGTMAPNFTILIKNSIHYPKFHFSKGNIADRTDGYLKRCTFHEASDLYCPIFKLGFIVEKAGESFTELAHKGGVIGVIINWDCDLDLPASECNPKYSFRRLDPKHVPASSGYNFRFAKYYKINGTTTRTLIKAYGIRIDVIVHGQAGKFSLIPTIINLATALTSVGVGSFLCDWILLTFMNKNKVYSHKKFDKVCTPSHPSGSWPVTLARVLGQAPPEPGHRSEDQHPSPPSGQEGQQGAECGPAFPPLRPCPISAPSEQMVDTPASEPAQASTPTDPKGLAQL

[2] = target: T3, hP2X4-E307T receptor mutant (Homo sapiens, UniProt Q99571, E307T); assay: Two-electrode voltage clamp (TEVC), P2X4-E307T in Xenopus laevis oocytes; type: cell-based; conditions: TEVC at -60 mV, Xenopus oocytes, P2X4-E307T
T3 construct: host or cells: Xenopus laevis oocytes injected with cRNA (pNKS2 vector)
T3 sequence (Q99571 1-388 E307T): T1 sequence (Q99571 1-388 E307T)

zebrafish P2X4 receptor = test system: zebrafish P2X4 receptor; set-up: method as in PMID 19641588, PMID 12127972; conditions: cited from earlier work
[3] = target: chimeric P2X4(P2X2) receptor c8^R265-L269 (Homo sapiens, UniProt Q99571, A266P/L269E/R265L); assay: cell-based
Sequence of chimeric P2X4(P2X2) receptor c8^R265-L269 (Q99571 whole entry R265L/A266P/L269E): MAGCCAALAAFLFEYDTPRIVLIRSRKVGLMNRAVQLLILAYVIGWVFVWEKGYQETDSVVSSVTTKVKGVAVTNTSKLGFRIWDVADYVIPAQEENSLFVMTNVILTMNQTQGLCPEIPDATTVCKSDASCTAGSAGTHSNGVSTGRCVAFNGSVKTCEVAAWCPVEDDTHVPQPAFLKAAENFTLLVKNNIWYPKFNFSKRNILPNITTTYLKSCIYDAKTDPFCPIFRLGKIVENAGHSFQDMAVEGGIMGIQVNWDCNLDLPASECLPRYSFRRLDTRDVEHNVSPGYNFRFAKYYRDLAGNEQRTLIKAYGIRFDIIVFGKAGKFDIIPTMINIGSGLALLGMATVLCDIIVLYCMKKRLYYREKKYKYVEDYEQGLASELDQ

Q: For `Nc1ncnc2c1ncn2[C@@H]1O[C@H](COP(=O)(O)OP(=O)(O)OP(=O)(O)O)[C@@H](O)[C@H]1O` [ATP, Adenosine 5′-triphosphate], which EC50 [1] is on record?
A: 921 nM

Q: And the EC50 (human wt P2X2 receptor; ATP EC50, wt hP2X2, calcium influx)?
A: 637 nM

Q: And the EC50 (human wt P2X2 receptor; ATP pEC50 ± SEM, wt hP2X2)?
A: 759 nM

Q: And the EC50 [2]?
A: ~10000 nM

Q: What about the “Potency of ATP at the zebrafish P2X4 receptor lower than at the human P2X4 receptor” value (zebrafish P2X4 receptor) of the same molecule?
A: about 700 fold

Q: And the EC50 [3]?
A: 389 nM
